Substitutions are numbered along the chain they refer to.
Assays:
[1] = tested on: 5HT2A receptors (cerebral cortex); assay: I125-LSD displacement from brain sections, cortex (autoradiography); format: binding, Sprague-Dawley rats; conditions: 1 micromolar compound, 1 nanomolar I125-LSD, 30 minutes, room temperature
[2] = tested on: human mutated 5HT2A receptor, AP-3; assay: Receptor-mediated inositol phosphate (IP3) accumulation, AP-3; format: cell-based; conditions: statement in words
[3] = tested on: Adult male Sprague-Dawley rats; assay: Amphetamine-stimulated locomotor activity; format: in vivo
Description: A 5HT2A receptor antagonist or inverse agonist is expected to decrease amphetamine-stimulated locomotion without affecting baseline locomotion. See, for example, Soresnon, et al, 266(2) J. Pharmacol. Exp. Ther. 684 (1993). […] For the following study, the following parameters and protocol were utilized:
Adult male Sprague-Dawley rats were utilized for these studies. Animals were housed in groups of 2-3 in hanging plastic cages with food and water available at all times. Animals were weighed and handled for at least one day prior to surgery and throughout the studies. For these studies, Vehicle consisted of 90% ethanol (100%) and 10% water.
A San Diego Instruments Flex Field apparatus was used to quantify baseline and amphetamine-stimulated locomotor activity. This apparatus consists of four 16"×16" clear plastic open fields. Photocell arrays (16 in each dimension) interfaced with a personal computer to automatically quantify activity. Several measures of activity can be assessed with the apparatus, including total photocell beam breaks. Animals (vehicle control and Compound treated) were injected s.c. 30 minutes prior to initiation of analysis. Following this 30 minute period, animals were placed individually into an open field and baseline activity was assessed for 30 minutes (habituation phase). […]

[4] = molecular target: T1, endogenous human 5-HT2C receptor (Homo sapiens, UniProt P28335)
T1 sequence (P28335 33-458): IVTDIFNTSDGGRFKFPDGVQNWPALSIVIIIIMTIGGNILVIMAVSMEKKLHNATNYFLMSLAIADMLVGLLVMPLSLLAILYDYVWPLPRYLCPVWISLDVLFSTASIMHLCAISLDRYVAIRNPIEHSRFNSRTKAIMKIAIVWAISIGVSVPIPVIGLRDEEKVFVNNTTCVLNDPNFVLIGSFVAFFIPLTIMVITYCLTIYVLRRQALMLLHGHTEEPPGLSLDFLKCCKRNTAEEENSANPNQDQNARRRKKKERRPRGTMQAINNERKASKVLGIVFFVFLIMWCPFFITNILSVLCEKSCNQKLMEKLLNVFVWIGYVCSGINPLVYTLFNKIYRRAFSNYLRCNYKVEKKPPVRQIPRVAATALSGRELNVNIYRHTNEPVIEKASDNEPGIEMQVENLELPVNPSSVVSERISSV

[5] = molecular target: T2, constitutively active mutant human 5HT2C receptor AP-1 (Homo sapiens, UniProt P28335, S310K); assay: [35S]GTPγS binding assay, AP-1 membranes; format: biochemical; conditions: 30 μM mianserin, 293T cells, Wallac scintistrips
T2 construct: expressed in transfected cells
T2 sequence (P28335 33-458 S310K): T1 sequence (P28335 33-458) with S278K

COc1ccc(OC(=O)Nc2cccc(-c3nn(C)cc3Br)c2)cc1 [Compound 116100, N-[3-(4-bromo-1-methylpyrazol-3-yl)phenyl][4-methoxyphenoxy]carboxamide]
displacement of I125-LSD from cortex (5HT2A) [1]: appears to selectively displace the I^125 -LSD from the cortex (5HT2A)

Cn1cc(Br)c(-c2cccc(NC(=O)c3cccs3)c2)n1 [Compound 116102, N-[3-(4-bromo-1-methylpyrazol-3-yl)phenyl][2-thienyl]carboxamide]
inverse agonist activity at the human 5HT2A receptor [2]: potent inverse agonist | amphetamine-stimulated locomotion (photobeam breaks) ([3]; 116102 s.c. 0.1, 1.0, 5.0 mg/kg, d-amphetamine sulfate 1.0 mg/kg): a decrease in the amphetamine-stimulated locomotion | dose-response pattern of locomotor activity ([3]; 116102 s.c. 0.1-10 mg/kg, FIGS. 17A-C): a general "inverted U" shaped pattern was observed

CN1CCN2c3ccccc3Cc3ccccc3C2C1 (centres unmarked) [mianserin]
inhibition of serotonin-stimulated [35S]GTPγS binding (FIG. 9) ([4]; 30 μM mianserin, COS cells): completely inhibited | inhibition of serotonin-stimulated [35S]GTPγS binding (FIG. 10) ([4]; endogenous human 5-HT2C per text): inhibits this response | inhibition of basal constitutive [35S]GTPγS binding (FIG. 10) ([4]; no agonist, endogenous human 5-HT2C per text): acts as a partial inverse agonist by inhibiting the basal constitutive binding of [^35 S]GTPγS | inhibition of serotonin-stimulated [35S]GTPγS binding, AP-1 (FIG. 10) [5]: inhibition

— patent US6140509A (priority 1999, dated 2000)
